As usually defined, the IC50 is the concentration at which inhibition is half-maximal.

The test addresses phosphorylated active hERK2 enzyme (Homo sapiens (Human), UniProt P28482). The note with it: read-out: ERK2 IC50; IMAP-FP assay; 0.5 nM hERK2, 30 μM ATP; 10 point titration, 3 μM starting concentration.

phosphorylated active hERK2 enzyme, sequence (P28482 whole entry): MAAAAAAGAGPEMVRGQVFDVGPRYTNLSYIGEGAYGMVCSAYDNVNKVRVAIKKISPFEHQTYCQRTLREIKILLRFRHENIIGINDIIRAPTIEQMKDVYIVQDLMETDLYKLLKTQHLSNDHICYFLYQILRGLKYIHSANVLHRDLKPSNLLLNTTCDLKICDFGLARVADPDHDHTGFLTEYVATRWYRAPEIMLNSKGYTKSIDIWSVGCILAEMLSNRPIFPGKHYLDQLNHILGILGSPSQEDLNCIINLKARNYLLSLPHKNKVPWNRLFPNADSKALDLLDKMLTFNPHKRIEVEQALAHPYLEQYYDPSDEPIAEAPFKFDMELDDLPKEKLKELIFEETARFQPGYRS

On to `Cc1cc(-n2ncc3cc(NC(=O)N[C@H](C)c4ccc(Cl)c(Cl)c4)ncc32)ccn1` [Example 220, 1-[(1R)-1-(3,4-dichlorophenyl)ethyl]-3-[1-(2-methylpyridin-4-yl)-1H-pyrazolo[3,4-c]pyridin-5-yl]urea], for which the concentration for half-maximal inhibition (IC50) was 0.00333 µM.
With `C[C@H](NC(=O)Nc1cc2cnn(-c3ccc(F)cc3)c2cn1)c1ccccn1` [Example 221, 1-[1-(4-fluorophenyl)-1H-pyrazolo[3,4-c]pyridin-5-yl]-3-[(1S)-1-pyridin-2-ylethyl]urea] the figure was 1.79 µM; with `C[C@@H](NC(=O)Nc1cc2cnn(-c3ccc(F)cc3)c2cn1)c1ccccn1` [Example 222, 1-[1-(4-fluorophenyl)-1H-pyrazolo[3,4-c]pyridin-5-yl]-3-[(1R)-1-pyridin-2-ylethyl]urea], 0.00753 µM; with `Cc1cc(-n2ncc3cc(NC(=O)N[C@H](C)c4ccc(F)cc4)ncc32)ccn1` [Example 223, (R)-1-(1-(4-fluorophenyl)ethyl)-3-(1-(2-methylpyridin-4-yl)-1H-pyrazolo[3,4-c]pyridin-5-yl)urea], 0.00228 µM.
Consider `Cc1cc(-n2ncc3c(F)c(NC(=O)N[C@H](C)c4ccccc4)ncc32)ccn1` [Example 224, (R)-1-(4-Fluoro-1-(2-methylpyridin-4-yl)-1H-pyrazolo[3,4-c]pyridin-5-yl)-3-(1-phenylethyl)urea], for which the concentration for half-maximal inhibition (IC50) came out at 0.00826 µM.
With `C[C@@H](NC(=O)Nc1cc2cnn(C)c2cn1)c1ccccc1` [Example 225, (R)-1-(1-methyl-1H-pyrazolo[3,4-c]pyridin-5-yl)-3-(1-phenylethyl)urea] the figure was 0.92 µM.
With `Cn1ncc2cc(NC(=O)N[C@@H](c3ccccc3)C(C)(C)O)nc(CO)c21` [Example 226, 1-[7-(hydroxymethyl)-1-methyl-1H-pyrazolo[3,4-c]pyridin-5-yl]-3-[(1S)-2-hydroxy-2-methyl-1-phenylpropyl]urea] the figure was 0.0693 µM; with `C[C@@H](O)[C@@H](NC(=O)Nc1cc2cn[nH]c2cn1)c1ccccc1` [Example 227, 1-((1S,2R)-2-Hydroxy-1-phenylpropyl)-3-(1H-pyrazolo[3,4-c]pyridin-5-yl)urea], 0.134 µM.
Regarding `Cn1ncc2cc(NC(=O)N[C@@H](c3ccccc3)C(C)(C)O)ncc21` [Example 228, 1-[(1S)-2-hydroxy-2-methyl-1-phenylpropyl]-3-(1-methyl-1H-pyrazolo[3,4-c]pyridin-5-yl)urea], the IC50 amounted to 0.0369 µM.
With `C[C@@H](NC(=O)Nc1cc2cn[nH]c2c(CO)n1)c1ccccc1` [Example 229, (R)-1-(7-(hydroxymethyl)-1H-pyrazolo[3,4-c]pyridin-5-yl)-3-(1-phenylethyl)urea] the figure was 0.041 µM; with `CC(C)(O)[C@@H](NC(=O)Nc1cc2cn[nH]c2cn1)c1ccccc1` [Example 230, (S)-1-(2-hydroxy-2-methyl-1-phenylpropyl)-3-(1H-pyrazolo[3,4-c]pyridin-5-yl)urea], 0.0699 µM; with `CCNC(=O)n1ncc2cc(NC(=O)N[C@H](C)c3ccccc3)ncc21` [Example 231, N-ethyl-5-({[(1R)-1-phenylethyl]carbamoyl}amino)-1H-pyrazolo[3,4-c]pyridine-1-carboxamide], 0.0641 µM.
With `C[C@@H](NC(=O)Nc1cc2cnn(C)c2cn1)c1ccc(F)cc1` [Example 232, 1-[(1R)-1-(4-fluorophenyl)ethyl]-3-(1-methyl-1H-pyrazolo[3,4-c]pyridin-5-yl)urea] the figure was 0.579 µM; with `C[C@@H](NC(=O)Nc1cc2cnn(C3CCNC(=O)C3)c2cn1)c1ccc(F)cc1` (stereo partly drawn) [Example 233, 1-[(1R)-1-(4-fluorophenyl)ethyl]-3-[1-(2-oxopiperidin-4-yl)-1H-pyrazolo[3,4-c]pyridin-5-yl]urea], 1.23 µM.
With `CC(C)(C)OC(=O)N1CCc2cnc(-n3ncc4cc(NC(=O)N[C@@H](c5ccc(F)cc5)C(C)(C)O)ncc43)nc2C1` [Example 234, tert-butyl 2-[5-({[(1S)-1-(4-fluorophenyl)-2-hydroxy-2-methylpropyl]carbamoyl}amino)-1H-pyrazolo[3,4-c]pyridin-1-yl]-5,8-dihydropyrido[3,4-d]pyrimidine-7(6H)-carboxylate] the figure was 1.81 µM.
For `COCCCn1ncc2cc(NC(=O)N[C@H](C)c3ccccc3)ncc21` [Example 235, 1-[1-(3-methoxypropyl)-1H-pyrazolo[3,4-c]pyridin-5-yl]-3-[(1R)-1-phenylethyl]urea], the IC50 came out at 1.52 µM.
With `Cn1ncc2cc(NC(=O)NC3CCCN(Cc4c(F)cccc4F)C3)ncc21` (stereo not shown) [Example 236, 1-[1-(2,6-difluorobenzyl)piperidin-3-yl]-3-(1-methyl-1H-pyrazolo[3,4-c]pyridin-5-yl)urea] the figure was 0.531 µM; with `COC[C@@H](NC(=O)Nc1cc2cnn(C)c2cn1)c1ccccc1` [Example 237, 1-[(1S)-2-methoxy-1-phenylethyl]-3-(1-methyl-1H-pyrazolo[3,4-c]pyridin-5-yl)urea], 0.882 µM; with `C[C@@H](NC(=O)Nc1cc2cnn(C3CCOCC3)c2cn1)c1ccccc1` [Example 238, 1-[(1R)-1-phenylethyl]-3-[1-(tetrahydro-2H-pyran-4-yl)-1H-pyrazolo[3,4-c]pyridin-5-yl]urea], 0.147 µM.
With `COC[C@@H](NC(=O)Nc1cc2cnn(C3CCNC(C)C3)c2cn1)c1ccccc1` (stereo partly drawn) [Example 239, 1-[(1S)-2-methoxy-1-phenylethyl]-3-[1-(2-methylpiperidin-4-yl)-1H-pyrazolo[3,4-c]pyridin-5-yl]urea] the figure was 2.18 µM.
With `C[C@@H](NC(=O)Nc1cc2cnn(-c3ccc(F)cc3)c2c(CO)n1)c1ccccc1` [Example 240, 1-[1-(4-fluorophenyl)-7-(hydroxymethyl)-1H-pyrazolo[3,4-c]pyridin-5-yl]-3-[(1R)-1-phenylethyl]urea] the figure was 0.0401 µM.
In the case of `COCc1nc(NC(=O)N[C@H](C)c2ccccc2)cc2cnn(-c3ccc(F)cc3)c12` [Example 241, 1-[1-(4-fluorophenyl)-7-(methoxymethyl)-1H-pyrazolo[3,4-c]pyridin-5-yl]-3-[(1R)-1-phenylethyl]urea], the IC50 is 0.0559 µM.
With `C[C@@H](NC(=O)Nc1cc2cnn(-c3ccc(F)cc3)c2c(CN2CCOCC2)n1)c1ccccc1` [Example 242, 1-[1-(4-fluorophenyl)-7-(morpholin-4-ylmethyl)-1H-pyrazolo[3,4-c]pyridin-5-yl]-3-[(1R)-1-phenylethyl]urea] the figure was 2.24 µM.
`C[C@@H](NC(=O)Nc1cc2cnn(-c3ccc(F)cc3)c2c(CN(C)C)n1)c1ccccc1` [Example 243, 1-{7-[(dimethylamino)methyl]-1-(4-fluorophenyl)-1H-pyrazolo[3,4-c]pyridin-5-yl}-3-[(1R)-1-phenylethyl]urea]: the IC50 was 1.58 µM.
With `C[C@@H](NC(=O)Nc1cc2cnn(-c3ccc(F)cc3)c2c(COCCN2CCOCC2)n1)c1ccccc1` [Example 244, 1-{1-(4-fluorophenyl)-7-[(2-morpholin-4-ylethoxy)methyl]-1H-pyrazolo[3,4-c]pyridin-5-y1}-3-[(1R)-1-phenylethyl]urea] the figure was 0.188 µM; with `Cc1cc(-n2ncc3cc(NC(=O)N[C@H](C)c4ccccc4)nc(CN4CCOCC4)c32)ccn1` [Example 245, 1-[1-(2-methylpyridin-4-yl)-7-(morpholin-4-ylmethyl)-1H-pyrazolo[3,4-c]pyridin-5-yl]-3-[(1R)-1-phenylethyl]urea], 0.832 µM; with `C[C@@H](NC(=O)Nc1cc2cnn(-c3ccc(F)cc3)c2c(COCCO)n1)c1ccccc1` [Example 246, 1-{1-(4-fluorophenyl)-7-[(2-hydroxyethoxy)methyl]-1H-pyrazolo[3,4-c]pyridin-5-yl}-3-[(1R)-1-phenylethyl]urea], 0.0522 µM.
With `COCc1nc(NC(=O)N[C@H](C)c2ccccc2)cc2cnn(-c3ccnc(C)c3)c12` [Example 247, 1-[7-(methoxymethyl)-1-(2-methylpyridin-4-yl)-1H-pyrazolo[3,4-c]pyridin-5-yl]-3-[(1R)-1-phenylethyl]urea], the half-maximal inhibitory concentration (IC50) was 0.0111 µM.
With `COCCOCc1nc(NC(=O)N[C@H](C)c2ccccc2)cc2cnn(-c3ccnc(C)c3)c12` [Example 248, 1-{7-[(2-methoxyethoxy)methyl]-1-(2-methylpyridin-4-yl)-1H-pyrazolo[3,4-c]pyridin-5-yl}-3-[(1R)-1-phenylethyl]urea] the figure was 0.0114 µM; with `Cc1cc(-n2ncc3cc(NC(=O)N[C@H](C)c4ccccc4)nc(COCCN4CCOCC4)c32)ccn1` [Example 249, 1-{1-(2-methylpyridin-4-yl)-7-[(2-morpholin-4-ylethoxy)methyl]-1H-pyrazolo[3,4-c]pyridin-5-yl}-3-[(1R)-1-phenylethyl]urea], 0.127 µM; with `Cc1cc(-n2ncc3cc(NC(=O)N[C@H](C)c4ccccc4)nc(COC4COC4)c32)ccn1` [Example 250, 1-{1-(2-methylpyridin-4-yl)-7-[(oxetan-3-yloxy)methyl]-1H-pyrazolo[3,4-c]pyridin-5-yl}-3-[(1R)-1-phenylethyl]urea], 0.025 µM.
With `Cc1cc(-n2ncc3cc(NC(=O)N[C@H](C)c4ccccc4)nc(C)c32)ccn1` [Example 251, 1-[7-methyl-1-(2-methylpyridin-4-yl)-1H-pyrazolo[3,4-c]pyridin-5-yl]-3-[(1R)-1-phenylethyl]urea] the figure was 0.00281 µM; with `Cc1cc(-n2ncc3cc(NC(=O)N[C@H](C)c4ccccc4)nc(COCCOCc4ccccc4)c32)ccn1` [Example 252, 1-[7-{[2-(benzyloxy)ethoxy]methyl}-1-(2-methylpyridin-4-yl)-1H-pyrazolo[3,4-c]pyridin-5-yl]-3-[(1R)-1-phenylethyl]urea], 0.0253 µM.
With `Cc1cc(-n2ncc3cc(NC(=O)N[C@H](C)c4ccccc4)nc(COCCO)c32)ccn1` [Example 253, 1-{7-[(2-hydroxyethoxy)methyl]-1-(2-methylpyridin-4-yl)-1H-pyrazolo[3,4-c]pyridin-5-yl}-3-[(1R)-1-phenylethyl]urea] the figure was 0.0234 µM.

Source of the values: US9884048B2, “ERK inhibitors” (Merck Sharp & Dohme Corp., priority 2014, dated 2018).
